In the case of O=c1cc(-c2ccc(O)c(O)c2)oc2cc(O)cc(O)c12, the solubility (mole fraction) (in DMSO, 298.2 K) is reported as 0.0515, the solubility (mole fraction) (in DMSO, 303.2 K) is reported as 0.0564 and the solubility (mole fraction) (in DMSO, 308.2 K) is reported as 0.0615. For the same compound, the solubility (mole fraction) (in DMSO, 313.2 K) was 0.0665, the solubility (mole fraction) (in DMSO, 318.2 K) was 0.0715 and the solubility (mole fraction) (in PEG-400, 298.2 K) was 0.1. The solubility (mole fraction) (in PEG-400, 303.2 K) was 0.106, the solubility (mole fraction) (in PEG-400, 308.2 K) was 0.113 and the solubility (mole fraction) (in PEG-400, 313.2 K) was 0.119. It also gave a solubility (mole fraction) (in PEG-400, 318.2 K) of 0.127, a solubility (mole fraction) (in ethanol, 298.2 K) of 0.00188 and a solubility (mole fraction) (in ethanol, 303.2 K) of 0.00209. For the same compound, the solubility (mole fraction) (in ethanol, 308.2 K) was 0.00241, the solubility (mole fraction) (in ethanol, 313.2 K) was 0.00273 and the solubility (mole fraction) (in ethanol, 318.2 K) was 0.00308. For the same compound, the solubility (mole fraction) (in ethyl acetate, 298.2 K) was 0.00261, the solubility (mole fraction) (in ethyl acetate, 303.2 K) was 0.00313 and the solubility (mole fraction) (in ethyl acetate, 308.2 K) was 0.00368. The solubility (mole fraction) (in ethyl acetate, 313.2 K) was 0.00438, the solubility (mole fraction) (in ethyl acetate, 318.2 K) was 0.00511 and the solubility (mole fraction) (in ethylene glycol, 298.2 K) was 0.0013. It also gave a solubility (mole fraction) (in ethylene glycol, 303.2 K) of 0.00158, a solubility (mole fraction) (in ethylene glycol, 308.2 K) of 0.0019 and a solubility (mole fraction) (in ethylene glycol, 313.2 K) of 0.00229. The solubility (mole fraction) (in ethylene glycol, 318.2 K) was 0.00268, the solubility (mole fraction) (in isopropanol, 298.2 K) was 0.00251 and the solubility (mole fraction) (in isopropanol, 303.2 K) was 0.00278. It also gave a solubility (mole fraction) (in isopropanol, 308.2 K) of 0.00316, a solubility (mole fraction) (in isopropanol, 313.2 K) of 0.00366 and a solubility (mole fraction) (in isopropanol, 318.2 K) of 0.00414. It also gave a solubility (mole fraction) (in methanol, 298.2 K) of 0.00047, a solubility (mole fraction) (in methanol, 303.2 K) of 0.000537 and a solubility (mole fraction) (in methanol, 308.2 K) of 0.000638. The solubility (mole fraction) (in methanol, 313.2 K) was 0.000727, the solubility (mole fraction) (in methanol, 318.2 K) was 0.000816 and the solubility (mole fraction) (in n-butanol, 298.2 K) was 0.00335. It also gave a solubility (mole fraction) (in n-butanol, 303.2 K) of 0.00369, a solubility (mole fraction) (in n-butanol, 308.2 K) of 0.00415 and a solubility (mole fraction) (in n-butanol, 313.2 K) of 0.00477. For the same compound, the solubility (mole fraction) (in n-butanol, 318.2 K) was 0.00536, the solubility (mole fraction) (in propylene glycol, 298.2 K) was 0.00212 and the solubility (mole fraction) (in propylene glycol, 303.2 K) was 0.00249. It also gave a solubility (mole fraction) (in propylene glycol, 308.2 K) of 0.00289, a solubility (mole fraction) (in propylene glycol, 313.2 K) of 0.00336 and a solubility (mole fraction) (in propylene glycol, 318.2 K) of 0.00389. It also gave a solubility (mole fraction) (in sec-butanol, 298.2 K) of 0.0035, a solubility (mole fraction) (in sec-butanol, 303.2 K) of 0.00381 and a solubility (mole fraction) (in sec-butanol, 308.2 K) of 0.00435. For the same compound, the solubility (mole fraction) (in sec-butanol, 313.2 K) was 0.00489, the solubility (mole fraction) (in sec-butanol, 318.2 K) was 0.00553 and the solubility (mole fraction) (in transcutol, 298.2 K) was 0.0309. For the same compound, the solubility (mole fraction) (in transcutol, 303.2 K) was 0.0331, the solubility (mole fraction) (in transcutol, 308.2 K) was 0.0354 and the solubility (mole fraction) (in transcutol, 313.2 K) was 0.0378. For the same compound, the solubility (mole fraction) (in transcutol, 318.2 K) was 0.0401, the solubility (mole fraction) (in water, 298.2 K) was 1.75e-06 and the solubility (mole fraction) (in water, 303.2 K) was 2.24e-06. The solubility (mole fraction) (in water, 308.2 K) was 2.83e-06, the solubility (mole fraction) (in water, 313.2 K) was 3.49e-06 and the solubility (mole fraction) (in water, 318.2 K) was 4.17e-06.

Source: BigSolDB 2.1
